# Key:
# Sphaerotheca fuliginea = assay: Sphaerotheca test (cucumber)/protective; format: in vivo; conditions: in vivo
# Procedure: (§1) Solvent: 49 parts by weight of N,N-dimethylformamide
# (§2) Emulsifier: 1 part by weight of alkylaryl polyglycol ether
# (§3) To produce a suitable preparation of active compounds, 1 part by weight of active compound is mixed with the stated amounts of solvent and emulsifier, and the concentrate is diluted with water to the desired concentration.
# To test for protective activity, young cucumber plants are sprayed with the active compound preparation at the stated application rate. 1 day after the treatment, the plants are inoculated with a spore suspension of Sphaerotheca fuliginea. The plants are then placed in a greenhouse at 70% rel. atmospheric humidity and a temperature of 23° C.
# (§4) Evaluation is carried out 7 days after the inoculation. 0% means an efficacy which corresponds to that of the control, whereas an efficacy of 100% means that no infection is observed.
# Alternaria solani = assay: Alternaria test (tomato)/protective; format: in vivo; conditions: in vivo
# Procedure: as §1, §2
# To produce a suitable preparation of active compound, 1 part by weight of active compound is mixed with the stated amounts of solvent and emulsifier, and the concentrate is diluted with water to the desired concentration.
# To test for protective activity, young tomato plants are sprayed with the active compound preparation at the stated application rate. 1 day after the treatment, the plants are inoculated with a spore suspension of Alternaria solani and then remain at 100% rel. humidity and 22° C. for 24 h. The plants then remain at 96% rel. atmospheric humidity and a temperature of 20° C.
# as §4
# Pyrenophora teres = Pyrenophora teres test (barley)/protective; format: in vivo; conditions: in vivo
# Procedure: as §1, §2, §3
# To test for protective activity, young barley plants are sprayed with the active compound preparation at the stated application rate. 1 day after the treatment, the plants are inoculated with an aqueous spore suspension of Pyrenophora teres and then remain at 100% rel. atmospheric humidity and 22° C. for 48 h. The plants are then placed in a greenhouse at 80% rel. atmospheric humidity and a temperature of 20° C.
# Evaluation is carried out 7-9 days after the inoculation. 0% means an efficacy which corresponds to that of the control, whereas an efficacy of 100% means that no infection is observed.
# [1] = log P determination by HPLC retention times (alkan-2-one calibration); conditions: preparation examples in the text
SMILES,"chromatographic logP ([1]; log P(HCOOH), HCOOH)",other results
CCC(=O)Nc1cc(-c2c(-c3ccc(F)cc3)nn3c2COCC3)ccn1 [Example 104],–,efficacy in % (Sphaerotheca fuliginea): 93%; efficacy in % (Alternaria solani): 80%; efficacy in % (Pyrenophora teres): 95%
CC(=O)Nc1cc(-c2c(-c3ccc(F)cc3)nn3c2CCOC3)ccn1 [Example 106],–,efficacy in % (Sphaerotheca fuliginea): 75%; efficacy in % (Alternaria solani): 80%; efficacy in % (Pyrenophora teres): 95%
"COC(=O)c1c(-c2ccc(F)cc2)nn2c1CCC2C (centres unmarked) [XXX-1, Methyl 2-(4-fluorophenyl)-6-methyl-5,6-dihydro-4H-pyrrolo[1,2-b]pyrazole-3-carboxylate]",2.84,–
"Ic1c(-c2ccsc2)nn2c1CCCC2 [VIII-14, 2-(3-Thienyl)-3-iodo-4,5,6,7-tetrahydropyrazolo[1,5-a]pyridine]",3.4,–
"CC1CCC(=O)N1N=C(c1ccccc1)c1ccccc1 (centres unmarked) [XXVI-1, 1-[(Diphenylmethylene)amino]-5-methylpyrrolidin-2-one]",2.73,–
"Ic1c(-c2cccs2)nn2c1CCCC2 [VIII-13, 2-(2-Thienyl)-3-iodo-4,5,6,7-tetrahydropyrazolo[1,5-a]pyridine]",3.45,–
"COc1ccc(-c2cc3n(n2)CCC3)cc1 [VII-7, 2-[4-(Methoxy)phenyl]-5,6-dihydro-4H-pyrrolo[1,2-b]pyrazole]",2.17,–
"Fc1ccc(-c2cc3n(n2)CCOC3)cc1 [VIIa-1, 2-(4-Fluorophenyl)-6,7-dihydro-4H-pyrazolo[5,1-c][1,4]oxazine]",2.01,–
"CCOC(=O)c1c(-c2ccccc2F)nn2c1CCC2 [XXX-3, Ethyl 2-(2-fluorophenyl)-5,6-dihydro-4H-pyrrolo[1,2-b]pyrazole-3-carboxylate]",2.49,–
"CC1(C)OCCc2c(I)c(-c3ccc(F)cc3)nn21 [VIII-16, 2-(4-Fluorophenyl)-3-iodo-7,7-dimethyl-4,5-dihydropyrazolo[1,5-c][1,3]oxazine]",4.28,–
"CC1CCn2nc(-c3ccc(F)cc3)c(I)c21 (centres unmarked) [VIII-21, 2-(4-Fluorophenyl)-3-iodo-4-methyl-5,6-dihydro-4H-pyrrolo[1,2-b]pyrazole]",3.67,–
"O=C(C#CCCOCc1ccccc1)c1ccc(F)cc1 [XX-1, 5-(Benzyloxy)-1-(4-fluorophenyl)pent-2-yn-1-one]",3.89,–
"Fc1ccc(-c2nn3c(c2Br)COCC3)cc1 [VIII-17, 3-Bromo-2-(4-fluorophenyl)-6,7-dihydro-4H-pyrazolo[5,1-c][1,4]oxazine]",2.9,–
"c1ccc(-c2cc3n(n2)CCSC3)cc1 [VIIb-1, 2-Phenyl-6,7-dihydro-4H-pyrazolo[5,1-c][1,4]thiazine]",2.46,–
"FC(F)(F)c1cccc(C#Cc2ccncc2)c1 [II-2, 4-{[3-(Trifluoromethyl)phenyl]ethynyl}pyridine]",–,"chromatographic logP ([1]; pH 7, log P(pH7), pH7): 3.5"
"FC(F)(F)c1cccc(-c2cc3n(n2)CCC3)c1 [VII-6, 2-[3-(Trifluoromethyl)phenyl]-5,6-dihydro-4H-pyrrolo[1,2-b]pyrazole]",3.25,–
"COC(=O)c1cc(-c2ccc(F)cc2)nn1CCCl [XI-1, Methyl 1-(2-chloroethyl)-3-(4-fluorophenyl)-1H-pyrazole-5-carboxylate]",3.58,–
"Clc1ccc(-c2cc3n(n2)CCC3)cc1 [VII-4, 2-(4-Chlorophenyl)-5,6-dihydro-4H-pyrrolo[1,2-b]pyrazole]",2.86,–
"CCOC(=O)CC(=NN1C(=O)CCC1C)c1ccccc1F (centres unmarked) [XXVIII-3, Ethyl 3-(2-fluorophenyl)-3-[(2-methyl-5-oxopyrrolidin-1-yl)imino]propanoate]",2.34,–
"Fc1ccc(-c2cc(CCOCc3ccccc3)[nH]n2)cc1 [XXI, 5-[2-(Benzyloxy)ethyl]-3-(4-fluorophenyl)-1H-pyrazole]",3.09,–
"Fc1ccc(-c2nn3c(c2I)CCCCC3)cc1 [VIII-2, 2-(4-Fluorophenyl)-3-iodo-5,6,7,8-tetrahydro-4H-pyrazolo[1,5-a]azepine]",4.35,–
"ClCc1cc(-c2ccccc2)n[nH]1 [XV-1, 5-(Chloromethyl)-3-phenyl-1H-pyrazole]",2.05,–
"Fc1ccc(-c2nn3c(c2I)CCOC3)cc1 [VIIIa-1, 2-(4-Fluorophenyl)-3-iodo-4,5-dihydropyrazolo[1,5-c][1,3]oxazine]",3.23,–
COC(=O)CC(=NN1CCC(C)C1=O)c1ccc(F)cc1 (centres unmarked),2.09,–
"Fc1ccc(-c2cc3n(n2)CCCC3)cc1 [VII-1, 2-(4-Fluorophenyl)-4,5,6,7-tetrahydropyrazolo[1,5-a]pyridine]",2.76,–

SMILES,"chromatographic logP ([1]; log P(HCOOH), HCOOH)",other results
"c1ccc(-c2cc3n(n2)CCCC3)cc1 [VII-5, 2-(Phenyl)-4,5,6,7-tetrahydropyrazolo[1,5-a]pyridine]",2.57,–
"Fc1ccc(-c2nn3c(c2I)CCC3)cc1 [VIII-6, 2-(4-Fluorophenyl)-3-iodo-5,6-dihydro-4H-pyrrolo[1,2-b]pyrazole]",3.3,–
"Fc1ccc(C#Cc2ccncc2)cc1 [II-4, 4-{[4-Fluorophenyl]ethynyl}pyridine]",–,"chromatographic logP ([1]; pH 7, log P(pH7), pH7): 2.81"
"OCc1cc(-c2ccccc2)n[nH]1 [XIV-1, (3-Phenyl-1H-pyrazol-5-yl)methanol]",1.14,–
"c1csc(-c2cc3n(n2)CCCC3)c1 [VII-11, 2-(2-Thienyl)-4,5,6,7-tetrahydropyrazolo[1,5-a]pyridine]",2.42,–
"Ic1c(-c2ccccc2)nn2c1COCC2 [VIII-15, 3-Iodo-2-phenyl-6,7-dihydro-4H-pyrazolo[5,1-c][1,4]oxazine]",2.82,–
"COC(=O)CC(=NN1C(=O)CCC1C)c1ccc(F)cc1 (centres unmarked) [XXVIII-1, Methyl 3-(4-fluorophenyl)-3-[(2-methyl-5-oxopyrrolidin-1-yl)imino]propanoate]",2.13,–
"CC1CCn2nc(-c3ccc(F)cc3)c(C(=O)O)c21 (centres unmarked) [XXXI-2, 2-(4-Fluorophenyl)-4-methyl-5,6-dihydro-4H-pyrrolo[1,2-b]pyrazole-3-carboxylic acid]",1.84,–
"Ic1c(-c2ccccc2)nn2c1CCC2 [VIII-5, 2-(Phenyl)-3-iodo-5,6-dihydro-4H-pyrrolo[1,2-b]pyrazole]",3.09,–
"COC(=O)c1c(-c2ccc(F)cc2)nn2c1C(C)CC2 (centres unmarked) [XXX-2, Methyl 2-(4-fluorophenyl)-4-methyl-5,6-dihydro-4H-pyrrolo[1,2-b]pyrazole-3-carboxylate]",2.71,–
"CC1CCc2c(I)c(-c3ccc(F)cc3)nn21 (centres unmarked) [VIII-19, 2-(4-Fluorophenyl)-3-iodo-6-methyl-5,6-dihydro-4H-pyrrolo[1,2-b]pyrazole]",3.82,–
"FC(F)(F)c1cccc(-c2nn3c(c2I)CCC3)c1 [VIII-3, 2-[3-(Trifluoromethyl)phenyl]-3-iodo-5,6-dihydro-4H-pyrrolo[1,2-b]pyrazole]",4.11,–
"O=C(O)c1c(-c2ccccc2F)nn2c1CCC2 [XXXI-4, 2-(2-Fluorophenyl)-5,6-dihydro-4H-pyrrolo[1,2-b]pyrazole-3-carboxylic acid]",1.35,–
"Clc1ccc(-c2nn3c(c2I)CCC3)cc1 [VIII-4, 2-(4-Chlorophenyl)-3-iodo-5,6-dihydro-4H-pyrrolo[1,2-b]pyrazole]",3.88,–
"OCc1cc(-c2ccc(F)cc2)nn1CCCl [XIII-1, [1-(2-Chloroethyl)-3-(4-fluorophenyl)-1H-pyrazol-5-yl]methanol]",1.84,–
"O=C1CCCN1N=C(c1ccccc1)c1ccccc1 [XXVI-2, 1-[(Diphenylmethylene)amino]pyrrolidin-2-one]",2.23,–
"Fc1ccc(-c2nn3c(c2I)CCCC3)cc1 [VIII-1, 2-(4-Fluorophenyl)-3-iodo-4,5,6,7-tetrahydropyrazolo[1,5-a]pyridine]",3.79,–
"Ic1c(-c2ccccc2)nn2c1CCCC2 [VIII-12, 2-(Phenyl)-3-iodo-4,5,6,7-tetrahydropyrazolo[1,5-a]pyridine]",3.55,–
"c1cc(-c2cc3n(n2)CCCC3)cs1 [VII-12, 2-(3-Thienyl)-4,5,6,7-tetrahydropyrazolo[1,5-a]pyridine]",2.25,–
"COc1ccc(-c2nn3c(c2I)CCC3)cc1 [VIII-9, 2-[4-(Methoxy)phenyl]-3-iodo-5,6-dihydro-4H-pyrrolo[1,2-b]pyrazole]",3.01,–
"CC1CCc2c(C(=O)O)c(-c3ccccc3F)nn21 (centres unmarked) [XXXI-3, 2-(2-Fluorophenyl)-6-methyl-5,6-dihydro-4H-pyrrolo[1,2-b]pyrazole-3-carboxylic acid]",1.64,–
"c1ccc(-c2cc3n(n2)CCC3)cc1 [VII-2, 2-(Phenyl)-5,6-dihydro-4H-pyrrolo[1,2-b]pyrazole]",2.19,–
"Fc1ccc(C#Cc2ccnc(Cl)c2)cc1 [II-6, 2-Chloro-4-[(4-fluorophenyl)ethynyl]pyridine]",3.8,–
"[O-]c1on[n+]2c1CCCC2 [III-2, 4,5,6,7-Tetrahydro[1,2,3]oxadiazolo[3,4-a]pyridin-8-ium 3-olate]",0.59,–

# Source: patent US8507472B2 (priority 2010, dated 2013)
